From patent US10322092B2, “Substance-containing vesicle, and production method therefor” (JAPAN SCIENCE AND TECHNOLOGY AGENCY, priority 2013, dated 2019)

Legend:
[1] = tested on: mouse colon cancer cell line C26; assay: Tumor treatment effect in C26-transplanted BALB/c mice; assay type: in vivo; conditions: for antitumor effect (tumor volume): i.v., days 3, 7, 10, 14
Description: Mouse colon cancer cell line C26-transplanted BALB/c mice (6-week-old) were divided into 8 groups of 5 each (groups 1 to 8), and each group was intravenously administered 200 μL each of CD-enclosing crosslinked vesicles (0.5 U/mL) prepared by the procedure described above, 5-FC, 5-FU or PBS, at the timing shown in Table 9 below. The 5-FC and 5-FU were prepared for 10 mg/kg (body weight) or 80 mg/kg (body weight), based on the mouse body weight. […] The tumor volume was measured by measuring the long diameter and short diameter of the tumor using a caliper, and the calculation was performed by the following formula. V=(a^2×b)/2 V: Tumor volume, a: long diameter, b: short diameter

A549 cells = assay: Cytotoxic effect (Cell Counting Kit-8); assay type: cell-based, human; conditions: 48 and 72 hours, gemcitabine concentration 0.5 μg/mL or matched carrier amount
Description: Specifically, the GEM-adsorbed sulfonated MSN-encapsulating vesicles obtained by the procedure described above (sample No. 1), the sulfonated MSN-encapsulating vesicles used as material for the foregoing (Example II-3A) (sample No. 2) and the vacant vesicles used as material for the foregoing (Example II-1) (sample No. 5) were each labeled with Cy3 (labeling 25% of the number of anionic polymers), and then A549 cells were added to each well of a plate having a density of 2.2×10^3 cells/well in RPMI-1640 medium, prior to culturing at 37° C. The amount of GEM-adsorbed sulfonated MSN-encapsulating vesicles (sample No. 1) added was an amount for a gemcitabine concentration of 0.5 μg/mL in the medium, the amounts of sulfonated MSN-encapsulating vesicles (sample No. 2) and vacant vesicles (sample No. 5) added were adjusted to be the same as the amount of GEM-adsorbed sulfonated MSN-encapsulating vesicles (sample No. 1) in terms of MSN-encapsulating vesicles. […]
Also, the cytotoxic effects of each of the samples (sample Nos. 1 to 6) at 48 hours and 72 hours after the start of culturing were evaluated by the following procedure. Specifically, using a Cell Counting Kit-8 (product of Dojindo) according to the manufacturer's instructions, reagent was added to each well and culturing was conducted for 1 hour, after which the viable cell count was measured. […]

C26 cells = assay: Cytotoxic effect (Cell Counting Kit-8); assay type: cell-based, murine; conditions: 48 and 72 hours, gemcitabine concentration 0.1 μg/mL or matched carrier amount
Description: Also, the cytotoxic effects of each of the samples (sample Nos. 1 to 6) at 48 hours and 72 hours after the start of culturing were evaluated by the following procedure. Specifically, using a Cell Counting Kit-8 (product of Dojindo) according to the manufacturer's instructions, reagent was added to each well and culturing was conducted for 1 hour, after which the viable cell count was measured. The results after 48 hours of culturing are shown in FIG. 34(a), and the results after 72 hours of culturing are shown in FIG. 34(b).
In addition, using C26 cells (a murine colon adenocarcinoma cell line) instead of A549 cells, the cell uptake property and cytotoxic effect were evaluated by the same procedure described above, except for the points mentioned below. […]

[2] = tested on: human pulmonary carcinoma cell line A549; assay: Tumor treatment effect in A549-transplanted BALB/c nude mice; assay type: in vivo, mouse; conditions: 200 μL i.v.; gemcitabine 5 mg/kg or matched carrier amount; 28 days; vs PBS group
Description: Human pulmonary carcinoma cell line A549-transplanted BALB/c nude mice (7-week-old, for each sample) were divided into 7 groups of 5 each, among which 6 of the groups were intravenously administered samples 1 to 6 (Groups 1 to 6), respectively. The dose of each sample was 200 μL, and the concentration of each sample of the GEM-adsorbed sulfonated MSN-encapsulating vesicles (sample No. 1), the GEM-adsorbed sulfonated MSN (sample No. 3) and the gemcitabine alone (sample No. 6) was adjusted for a gemcitabine concentration of 5 mg/kg of mouse body weight, while the amounts of sulfonated MSN-encapsulating vesicles (sample No. 2) and vacant vesicles (sample No. 5) added were adjusted to be the same as the amount of GEM-adsorbed sulfonated MSN-encapsulating vesicles (sample No. 1) in terms of MSN-encapsulating vesicles, and the amount of sulfonated MSN (sample No. 4) added was adjusted to be the same as the amount of GEM-adsorbed sulfonated MSN (sample No. 3) in terms of MSN. To the remaining group there was administered 200 μL of PBS (Group 7). The tumor volumes were measured for 28 days after administration. Tumor volume was measured by measuring the long diameter and short diameter of the tumor using a caliper, and calculation was performed by the following formula. V=(a^2×b)/2 V: Tumor volume, a: long diameter, b: short diameter

[3] = Viscosity of FITC-Dex solutions (rotating rheometer); assay type: physicochemical
Description: The viscosity was measured using a rotating rheometer (Physica MCR302, product of Anton Paar).

[4] = dose of 10 mg/kg (5-FC or 5-FU)
[5] = dose of 80 mg/kg (5-FC or 5-FU)

Row | Compound | viscosity ([3]; concentration 10 mg/mL) [Pa·s] | viscosity ([3]; concentration 4 mg/mL) [Pa·s] | antitumor effect (tumor volume) [1, 4] | antitumor effect (tumor volume) [1, 5] | other results
1 | Nc1nc(=O)[nH]cc1F [Example 5-FC, 5-fluorocytosine] |  |  | no significant antitumor effect or toxicity | no significant antitumor effect or toxicity | 
2 | O=c1[nH]cc(F)c(=O)[nH]1 [Example 5-FU, 5-fluorouracil] |  |  | very weak antitumor effect | antitumor effect that shrunk the tumor | individuals died by the 28th day after administration ([1]; dose of 10 mg/kg, 5 mice per group): 3; survival ([1]; dose of 80 mg/kg, 5 mice per group, up to 28 days): all of the individuals died by the 17th day
3 | Nc1ccn([C@@H]2O[C@H](CO)[C@@H](O)C2(F)F)c(=O)n1 [gemcitabine alone, Gemcitabine] |  |  |  |  | cytotoxic effect (viable cell count) (A549 cells): powerful cytotoxic effect; cytotoxic effect (viable cell count) (C26 cells): powerful cytotoxic effect; antitumor effect (tumor volume) [2]: no significant antitumor effect was seen

Continued, in another order:

Row | viscosity ([3]; concentration 10 mg/mL) [Pa·s] | viscosity ([3]; concentration 4 mg/mL) [Pa·s] | Compound | antitumor effect (tumor volume) [1, 4] | antitumor effect (tumor volume) [1, 5] | other results
4 | 0.0097 |  | fluorescein isothiocyanate-dextran [FITC-Dex 4000] |  |  | 
5 | 0.1271 | 0.0504 | fluorescein isothiocyanate-dextran [FITC-Dex 10000] |  |  | 
6 | 0.1377 | 0.0513 | fluorescein isothiocyanate-dextran [FITC-Dex 40000] |  |  | viscosity ([3]; concentration 50 mg/mL): 0.5481 Pa·s
